In the test the target is T1, glucocorticoid receptor (Homo sapiens, UniProt P04150).
T1 construct: endogenous in cells; host or cells: HeLa (ATCC) cell lysate supernatant
T1 sequence (P04150 1-777): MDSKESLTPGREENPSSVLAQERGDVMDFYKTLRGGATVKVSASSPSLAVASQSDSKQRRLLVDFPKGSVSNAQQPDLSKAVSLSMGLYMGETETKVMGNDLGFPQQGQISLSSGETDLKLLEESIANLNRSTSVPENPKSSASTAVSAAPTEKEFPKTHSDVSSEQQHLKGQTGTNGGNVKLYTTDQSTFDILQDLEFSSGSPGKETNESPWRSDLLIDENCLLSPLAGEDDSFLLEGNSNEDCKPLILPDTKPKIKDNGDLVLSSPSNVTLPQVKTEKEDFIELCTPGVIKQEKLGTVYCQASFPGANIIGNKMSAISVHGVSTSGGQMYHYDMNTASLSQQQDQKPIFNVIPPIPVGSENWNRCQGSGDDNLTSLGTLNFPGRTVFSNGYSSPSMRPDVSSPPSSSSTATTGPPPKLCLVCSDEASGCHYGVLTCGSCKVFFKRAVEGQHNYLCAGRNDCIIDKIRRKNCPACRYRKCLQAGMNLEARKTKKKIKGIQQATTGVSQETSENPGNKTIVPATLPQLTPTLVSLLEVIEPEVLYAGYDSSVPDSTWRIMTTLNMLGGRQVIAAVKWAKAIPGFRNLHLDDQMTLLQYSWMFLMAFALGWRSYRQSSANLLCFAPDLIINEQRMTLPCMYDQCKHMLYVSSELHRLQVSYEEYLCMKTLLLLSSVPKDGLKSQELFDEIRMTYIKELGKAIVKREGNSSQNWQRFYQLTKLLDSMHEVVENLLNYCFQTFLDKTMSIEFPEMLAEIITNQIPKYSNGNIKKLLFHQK
Nature of the test: Ligand binding assay (GRBind), 3H-dexamethasone displacement in HeLa cell lysate. The note with it: 3H-DEX tracer. Summed up:
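Cytosolic supernatant from HeLa cells in TEGM buffer (pH 7.2, with molybdate) was incubated overnight at 4 °C with 3H-dexamethasone (6 nM trace solution) and serially diluted compound, with 2% ethanol. Bound receptor was captured on hydroxylapatite, filtered and counted by scintillation. IC50s were calculated using dexamethasone as reference.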

As usually defined, the Ki is a dissociation constant, usually derived from enzyme kinetics or from competition with a known ligand. Lower therefore signals tighter binding. With `CC[C@]12Cc3cnn(-c4ccccc4)c3C=C1CC[C@@]2(O)CC(O)c1ccccn1` (single isomer, unassigned) [Example 82a], the affinity corresponds to a Ki of 11.3 nM.

The compound `OCc1ccccc1CC[C@]1(O)CCC2=Cc3c(cnn3-c3ccc(F)cc3)C[C@@]21C1CC1` [Example 2, (4aR,5R)-4a-Cyclopropyl-1-(4-fluorophenyl)-5-{2-[2-(hydroxymethyl)phenyl]ethyl}-1,4,4a,5,6,7-hexahydrocyclopenta[f]indazol-5-ol] had a Ki of 1.32 nM. For `NC(=O)C(O)c1ccccc1CC[C@]1(O)CCC2=Cc3c(cnn3-c3ccc(F)cc3)C[C@@]21C1CC1` (single isomer, unassigned) [Example 3a] the value was 1.8 nM; for `CC[C@]12Cc3cnn(-c4ccccc4)c3C=C1CC[C@@]2(O)CC(O)c1ccccn1` (single isomer, unassigned) [Example 82b], 5.46 nM. In turn, `OC(C[C@]1(O)CCC2=Cc3c(cnn3-c3ccc(F)cc3)C[C@@]21C1CC1)c1ccc(F)cn1` (single isomer, unassigned) [Example 79b] gave an inhibition constant Ki of 1.55 nM. Take `CC[C@]12Cc3cnn(-c4ccc(F)cc4)c3C=C1CC[C@@]2(O)CCc1ncccc1S(C)(=O)=O` [Example 80, (4aS,5R)-4a-Ethyl-1-(4-fluorophenyl)-5-{2-[3-(methylsulfonyl)pyridin-2-yl]ethyl}-1,4,4a,5,6,7-hexahydrocyclopenta[f]indazol-5-ol]: the affinity corresponds to a Ki of 1.32 nM.

Turning to `CC[C@]12Cc3cnn(-c4ccccc4)c3C=C1CC[C@@]2(O)CCc1ncccc1S(=O)(=O)C(C)C` [Example 81, (4aS,5R)-4a-Ethyl-5-{2-[3-(iso-propylsulfonyl)pyridin-2-yl]ethyl}-1-phenyl-1,4,4a,5,6,7-hexahydrocyclopenta[f]indazol-5-ol], the Ki was 7.3 nM.

The values above are taken from patent publication US20120214847A1, “2-[1-PHENYL-5-HYDROXY-4a-SUBSTITUTED-HEXAHYDROCYCLOPENTA[F]INDAZOL-5-YL]ETHYL PHENYL DERIVATIVES AS GLUCOCORTICOID RECEPTOR LIGANDS” (Merck Sharp & Dohme Corp., priority 2009, published 2012).
